Converted amounts (≈) assume the structure as drawn.
How the values were obtained:
[1] = in a carbonate-based electrolyte; cited from earlier work
[2] = Cyclic voltammetry in non-aqueous carbonate electrolyte; assay type: physicochemical; details: 10 mM in 1.5 M LiPF6 in EC/EMC 3:7 (v/v); glassy carbon working electrode, lithium metal counter and reference; iR-correction
Procedure: (§1) FIG. 3 provides cyclic voltammograms of 10 mM 4-(1,4-dioxabutyl)-2,2,6,6-tetramethylpiperidine-1-oxyl (TEMPO-EG1) in a non-aqueous electrolyte (1.5 M LiPF6 in a mixture of ethylene carbonate (EC) and ethyl methyl carbonate (EMC), 3:7 (v/v), respectively) at various scan rates given in mV/s. In FIG. 3, the cyclic voltammograms were measured at various rates with iR-correction applied. A glassy carbon electrode was used as the working electrode, while lithium metal strips were used as the counter and reference electrodes.
as §1, with “FIG. 4” for “FIG. 3”, “mM 4-(1,4,7-trioxaoctyl)-2,2,6,6-tetramethylpiperidine-1-oxyl (TEMPO-EG2)” for “mM 4-(1,4-dioxabutyl)-2,2,6,6-tetramethylpiperidine-1-oxyl (TEMPO-EG1)”, “FIG. 4,” for “FIG. 3,”
as §1, with “FIG. 5” for “FIG. 3”, “mM 4-(1,4,7,10-tetraoxaundecyl)-2,2,6,6-tetramethylpiperidine-1-oxyl (TEMPO-EG3)” for “mM 4-(1,4-dioxabutyl)-2,2,6,6-tetramethylpiperidine-1-oxyl (TEMPO-EG1)”, “FIG. 5,” for “FIG. 3,”

[3] = Viscosity measurement with RHEOSENSE microfluidic MEMS viscometer; assay type: physicochemical; details: neat liquid, 23.4° C., shear rates 500-5000 s^−1 (EG1, EG2) or 100-4000 s^−1 (EG3)
Procedure: The viscosities of liquid TEMPO derivatives were determined at 23.4° C. using a RHEOSENSE microfluidic and micro-electro-mechanical-systems (MEMS) viscometer. The RHEOSENSE viscometer is based on the viscometer-rheometer-on-a-chip (VROC) technology. For TEMPO-EG1 and EG2, shear rates were swept from 500 s^−1 to 5000 s^−1, while the viscosity of TEMPO-EG3 was measured from 100 s^−1 to 4000 s^−1. […] Longer glycol ether chains lead to increases in viscosity, but the impact differs drastically.

[4] = Cyclic voltammetry in aqueous electrolytes; assay type: physicochemical; details: for redox potential: Pt disk working electrode, Pt coil counter
Procedure: Cyclic voltammograms of 10 mM TEMPO-EG3 in an aqueous electrolyte (1 M aqueous sulfuric acid) were measured at various scan rates given in mV/s. A Pt disk was used as the working electrode, while the counter electrode was a Pt coil and the reference electrode was Ag/AgCl.
Cyclic voltammograms of 10 mM TEMPO-EG3 in an aqueous electrolyte (1M aqueous sodium chloride) were measured at various scan rates given in mV/s. A Pt disk was used as the working electrode, while the counter electrode was a Pt coil and the reference electrode was Ag/AgCl.

Row | Compound | solubility [1] [mM] | redox potential [2] [V vs. Li/Li^+] | viscosity [3] [mPa·s] | redox potential ([4]; 10 mM in 1M aqueous sodium chloride (neutral electrolyte)) | redox potential ([4]; 10 mM in 1 M aqueous sulfuric acid (acidic electrolyte)) | electrochemical reversibility ([4]; cyclic voltammetry in common aqueous electrolytes)
1 | COCCOc1cc(C(C)(C)C)c(OC)cc1C(C)(C)C [DBMMEB, 1,4-di-tert-butyl-2-methoxy-5-(2-rnethoxyethoxy)benzene] | 600 (≈ 177 mg/mL) |  |  |  |  | 
2 | COCCOC1CC(C)(C)N([O])C(C)(C)C1 [TEMPO-EG1, 4-(2-methoxyethoxy)-2,2,6,6-tetramethylpiperidine-1-oxyl] |  | 3.53 | 10.23 |  |  | 
3 | COCCOCCOC1CC(C)(C)N([O])C(C)(C)C1 [TEMPO-EG2, 4-(3,6-dioxaheptyloxy)-2,2,6,6-tetramethylpiperidine-1-oxyl] |  | 3.53 | 10.88 |  |  | 
4 | COCCOCCOCCOC1CC(C)(C)N([O])C(C)(C)C1 [TEMPO-EG3, 4-(3,6,9-trioxadecyloxy)-2,2,6,6-tetramethylpiperidine-1-oxyl] |  | 3.53 | 21.30 | about 0.59 V vs. Ag/AgCl | about 0.55 V vs. Ag/AgCl | excellent electrochemical reversibility

— patent publication US11271237B2, “Organic redox molecules for flow batteries” (UCHICAGO ARGONNE, LLC, priority 2019, dated 2022)
